The target in one series is T1, Aromatase (Homo sapiens, UniProt P11511).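 Further: tritiated androstenedione turnover by human CYP19 with NADPH over 15 min, measured through liquid scintillation counting, value is the concentration halving enzyme activity.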
T1 sequence (P11511 whole entry): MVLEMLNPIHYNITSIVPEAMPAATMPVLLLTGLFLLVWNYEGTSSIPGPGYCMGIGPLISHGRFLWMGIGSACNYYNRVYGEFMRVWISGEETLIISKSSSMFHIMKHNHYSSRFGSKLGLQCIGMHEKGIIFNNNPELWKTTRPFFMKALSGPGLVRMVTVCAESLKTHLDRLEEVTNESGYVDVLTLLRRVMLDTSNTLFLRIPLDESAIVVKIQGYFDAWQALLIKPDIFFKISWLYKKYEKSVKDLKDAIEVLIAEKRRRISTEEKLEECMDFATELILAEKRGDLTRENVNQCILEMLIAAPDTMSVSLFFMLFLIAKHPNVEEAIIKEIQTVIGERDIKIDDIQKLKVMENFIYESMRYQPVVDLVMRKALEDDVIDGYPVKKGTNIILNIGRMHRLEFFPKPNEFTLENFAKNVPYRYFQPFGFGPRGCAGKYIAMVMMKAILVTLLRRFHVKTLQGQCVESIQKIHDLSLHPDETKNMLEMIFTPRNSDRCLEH

Series [1] has as its target T2, CYP19 (aromatase) (Homo sapiens, UniProt P11511).
T2 sequence (P11511 whole entry): T1 sequence (P11511 whole entry)
Kind of series: Inhibition of human CYP19 assessed as residual activity at 10 uM using [1beta-3H]-androstenedione as substrate after 15 mins in presence of NADPH by liquid scintillation counter method relative to control. Particulars: probe [1beta-3H]-androstenedione, read-out: Activity.

Series [2] deals with T2, CYP19 (aromatase). Kind of series: Inhibition of human CYP19 assessed as residual activity at 0.1 uM using [1beta-3H]-androstenedione as substrate after 15 mins in presence of NADPH by liquid scintillation counter method relative to control. The following applies: probe [1beta-3H]-androstenedione, read-out: Activity.

Structures are written as SMILES.

One may read the IC50 as the concentration that inhibits the measured activity by half. Low readings indicate greater potency, high ones weaker potency. As to `CCN(CC)c1ccc2ccc(=O)oc2c1`, on Aromatase, the IC50 is over 10 µM. In addition, at CYP19 (aromatase) [1], the activity at 0.25 h, 10 µM was 86%.
Consider `O=c1ccc2ccc(-c3ccccc3)cc2o1`, for which the concentration for half-maximal inhibition (IC50) against Aromatase is over 10 µM.
Still for that read-out and setting: as for `COc1ccc(-c2ccc3ccc(=O)oc3c2)cc1`, the figure is over 10 µM.
The compound `CCN(CC)c1ccc2cc(-c3nc(-c4ccccc4)cs3)c(=O)oc2c1` showed a 50% inhibitory concentration (IC50) at Aromatase of over 10 µM. The activity at 0.25 h, 10 µM on CYP19 (aromatase) [1] was 65%.
For `CCN(CC)c1ccc2cc(-c3cc4ccc(N(CC)CC)cc4oc3=O)c(=O)oc2c1`, half-maximal inhibition on Aromatase (IC50) was put at 0.0287 µM. The activity at 0.25 h, 10 µM at CYP19 (aromatase) [1] stood at 0%. Moreover, the activity at 0.25 h, 0.1 µM at CYP19 (aromatase) [2] worked out at 30%.
`CCOC(=O)c1oc(-c2cc3ccc(N(CC)CC)cc3oc2=O)nc1C`: at Aromatase, the concentration for half-maximal inhibition (IC50) was over 10 µM. Moreover, on CYP19 (aromatase) [1], the activity at 0.25 h, 10 µM lay within 22 to 104%.
Regarding `CCOC(=O)c1csc(-c2cc3ccc(N(CC)CC)cc3oc2=O)n1`, half-maximal inhibition at Aromatase (IC50) was put at 1.1 µM. Also, the activity at 0.25 h, 10 µM on CYP19 (aromatase) [1] is 22%.
Consider `O=c1ccc2ccc(-c3ccncc3)cc2o1`, for which the half-maximal inhibitory concentration (IC50) at Aromatase was determined as 2.6 µM. At CYP19 (aromatase) [1], the activity at 0.25 h, 10 µM came out at 14%. The activity at 0.25 h, 0.1 µM on CYP19 (aromatase) [2] was 92%.
Compound `CCN(CC)c1ccc2cc(-c3cnco3)c(=O)oc2c1` came in with an IC50 against Aromatase of 3.1 µM. Further, the activity at 0.25 h, 10 µM on CYP19 (aromatase) [1] was in the range of 22 to 104%.
For `COc1ccc2cc(-c3cc4ccc(OC)cc4oc3=O)c(=O)oc2c1` the same measures were over 10 µM and 77%.
For `CCN(CC)c1ccc2cc(-c3nc(CC(=O)OC)cs3)c(=O)oc2c1`, in that order: over 10 µM and 55%.
As to `O=c1ccc2ccc(-c3cccnc3)cc2o1`, the concentration for half-maximal inhibition (IC50) against Aromatase was found to be 0.0303 µM. Also, on CYP19 (aromatase) [1], the activity at 0.25 h, 10 µM was 0%. For the same compound, the activity at 0.25 h, 0.1 µM on CYP19 (aromatase) [2] is 25%.
Regarding `O=c1ccc2ccc(-c3ccccn3)cc2o1`, at Aromatase, the IC50 is over 10 µM. The activity at 0.25 h, 10 µM on CYP19 (aromatase) [1] was 96%.
For `CCN(CC)c1ccc2cc(-c3coc(-c4ccccc4)n3)c(=O)oc2c1`, in that order: over 10 µM and 22 to 104%.
For `CCN(CC)c1ccc2cc(-c3nc(C)cs3)c(=O)oc2c1` the same measures were 1.1 µM and 15%.
For `CCN(CC)c1ccc2cc(-c3ncco3)c(=O)oc2c1`, in that order: over 10 µM and 22 to 104%.
Consider `COc1ccc2ccc(=O)oc2c1` [HERNIARIN], for which, on Aromatase, the 50% inhibitory concentration (IC50) was over 10 µM. The activity at 0.25 h, 10 µM on CYP19 (aromatase) [1] was determined as 96%.

Values taken from ChEMBL document CHEMBL4020780, “Evaluation of synthesized coumarin derivatives on aromatase inhibitory activity” (Bioorg Med Chem Lett, 2017).
